Measurements published in publication PMC11898752, “Functional Characterization of β-Glucuronidase Genes Involved in Baicalein Biosynthesis from Scutellaria baicalensis Based on Transcriptome Analysis” (International Journal of Molecular Sciences, 2025).

What was measured:
[1] = tested on: T1, GUS1; test: HPLC of baicalein formed, Hanes-Woolf plot; type: biochemical, Scutellaria baicalensis; settings: PBS pH 9, 45 °C, 40 min
T1 construct: full-length ORF in pEASY-Blunt E1, His-tag purified from E. coli BL21(DE3), about 60 kDa on SDS-PAGE

[2] = tested on: T2, GUS2; test: HPLC of baicalein formed, Hanes-Woolf plot; type: biochemical, Scutellaria baicalensis; settings: PBS pH 9, 45 °C, 40 min
T2 construct: full-length ORF in pEASY-Blunt E1, His-tag purified from E. coli BL21(DE3), about 55 kDa on SDS-PAGE

- Km [1]: 0.2826 mg/mL
- Km [2]: 0.2732 mg/mL
SMILES: O=C(O)[C@H]1O[C@@H](Oc2cc3oc(-c4ccccc4)cc(=O)c3c(O)c2O)[C@H](O)[C@@H](O)[C@@H]1O [baicalin]
